Earlier results, collected in US9505976B2, “Excitation-dependent fluorescent organic nanoparticles” (National Kaohsiung Normal University, priority 2013, dated 2016).

Conditions: in ethanol

## CCN(CC)c1ccc2c(C)cc(=O)oc2c1 [coumarin 1, 7-diethylamino-4-methylcoumarin]
  quantum yield of reference: 73%
